Here are results for eleven compounds from ChEMBL document CHEMBL1129658, “Syntheses and conformational analyses of glutamate analogs: 2-(2-carboxy-3-substituted-cyclopropyl)glycines as useful probes for excitatory amino acid receptors” (J Med Chem, 1996).

What is called pKa is the pH at which an ionisable group is half protonated. Low readings indicate a group that gives up its proton readily, high ones a group that holds its proton tightly. Usually IC50 stands for the concentration that inhibits the measured activity by half.

The nature of data set [1]: pKa value by 1H NMR titration experiments; pK1. Format: physicochemical.
A short description of data set [2]: pKa value by 1H NMR titration experiments; pK3. Format: physicochemical.
Data set [3] is described as follows: pKa value by 1H NMR titration experiments; pK2. The class given is physicochemical.
The species entered for data set [4] is Rattus norvegicus. As to the kind of experiment: Depolarizing potency in new born rat spinal cord. The class given is functional.
A short description of data set [5]: Compound was tested for the Inhibition of forskolin-stimulated cAMP formation in the cultured spinal neurons. The note with it: Rattus norvegicus. (Changes in cAMP serve as a functional read-out for many G protein-coupled receptors.)
The species entered for data set [6] is Rattus norvegicus. As to the kind of experiment: Compound was tested for the inhibition of spinal reflex evoked by electrical stimulation of the dorsal root of new born rat.

For `COC[C@H]1[C@H](C(=O)O)[C@H]1[C@H](N)C(=O)O`, the pKa is 2.3 in data set [1], 10.2 in data set [2] and 4.2 in data set [3]. Also, the Relative potency in the data set listed under Rattus norvegicus [4] turned out to be 0.1.

In the case of `N[C@H](C(=O)O)[C@H]1C[C@@H]1C(=O)O`, the pKa turned out to be 1.9 in data set [1], 9.7 in data set [2] and 4.2 in data set [3]. The results for the IC50 (in data set [5]; in the data set filed under Rattus norvegicus [6]) were 100 nM and 700 nM, respectively. The same compound yielded a Relative potency in the data set filed under Rattus norvegicus [4] of 6.

Take `N[C@H](C(=O)O)[C@@H]1C[C@@H]1C(=O)O`: the results for the pKa in data set [1], in data set [2] and in data set [3] were 2.5, 10 and 4.6, respectively. Moreover, in the data set listed under Rattus norvegicus [4], the Relative potency stood at 100.

Take `N[C@H](C(=O)O)[C@H]1C[C@H]1C(=O)O`: the pKa came to 2.1 in data set [1], 10 in data set [2] and 4.3 in data set [3].

With `COC[C@@H]1[C@H](C(=O)O)[C@H]1[C@H](N)C(=O)O`, the pKa in data set [1] is 2.1; in data set [2], 9.7; in data set [3] it was 4. Also, in the data set listed under Rattus norvegicus [4], the Relative potency is given as 0.1.

For the compound `COC[C@@H]1[C@H](C(=O)O)[C@@H]1[C@H](N)C(=O)O`, the pKa in data set [1] is 2; in data set [2], 10.1; in data set [3], 5.1. Moreover, the Relative potency in the data set listed under Rattus norvegicus [4] was 25.

`N[C@H](C(=O)O)[C@@H]1C[C@H]1C(=O)O`: the pKa in data set [1] was determined as 2.2; in data set [2], 9.5; in data set [3] it was 4.2.

For `COC[C@H]1[C@H](C(=O)O)[C@@H]1[C@H](N)C(=O)O`, the pKa came to 2.2 in data set [1], 9.6 in data set [2] and 4.7 in data set [3]. The Relative potency in the data set listed under Rattus norvegicus [4] came to 50.

For `Cc1onc(O)c1CC(N)C(=O)O` [(R,S)-AMPA], the figures for the pKa in data set [1], in data set [2] and in data set [3] were 2.1, 10.1 and 5.2, respectively.

`N[C@@H](CCC(=O)O)C(=O)O` [GLUTAMIC ACID] yielded a pKa in data set [2] of 9.7. For the same compound, the Relative potency in the data set filed under Rattus norvegicus [4] worked out at 1.

For `C=C(C)[C@H]1CN[C@H](C(=O)O)[C@H]1CC(=O)O` [KAINIC ACID], the pKa in data set [1] was 2.1; in data set [2] it was 10.1; in data set [3], 4.3. In addition, in the data set filed under Rattus norvegicus [4], the Relative potency was 100.
